Assay in all cases: DTP human tumour cell line panel, 48 h
The test system of test [1] is COLO 205 colon.
The subject of test [2] is PC-3 prostate.
In test [3] the test system is OVCAR-4 ovarian.
In test [4] the test system is HCC-2998 colon.
Test [5] deals with SK-MEL-28 melanoma.
Test [6] concerns HL-60(TB) leukemia.
In test [7] the test system is EKVX NSCLC.
For test [8], the system named is SN12C renal.
The test system of test [9] is MCF7 breast.
Test [10] relates to KM12 colon.

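Following 48 hours of exposure in 96-well plates, responses at five concentrations were used to interpolate endpoints linearly. GI50: concentration for 50% inhibition of growth. TGI: total growth inhibition.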 Some results are limits rather than exact numbers.

Broadly, the GI50 is the concentration giving 50% growth inhibition. What is called TGI is the concentration giving total growth inhibition. High values mean lower sensitivity of the cells, low ones greater sensitivity of the cells. For `Cc1cccc(Cc2cnc(NC(=O)CCc3ccc(C)o3)s2)c1`, the GI50 in [1] is 227 nM; in [2], 336 nM; in test [3] it was 1230 nM; in test [4], 409 nM; in [5] it was 2060 nM; in test [6], 161 nM. For the same compound, the GI50 was 585 nM in [7], 525 nM in test [8], 49.5 nM in test [9] and 160 nM in [10]. The TGI in test [1] was 716 nM; in test [2] it was over 100000 nM; in [3], over 100000 nM; in test [4] it was over 100000 nM; in test [5], over 100000 nM; in test [6], 440 nM. Moreover, the TGI in [7], in [8], in [9] and in test [10] was over 100000 nM throughout.

As for `O=C(c1ccccc1)c1c(C(F)(F)F)n([O-])c2ccc(C(F)(F)F)cc2[n+]1=O`, the GI50 in [1] was 384 nM; in [2], 94.8 nM; in test [3] it was 156 nM; in test [4], 622 nM; in test [5], 507 nM; in test [6], 84 nM. Further, the GI50 is 234 nM in test [7], 215 nM in test [8], 305 nM in test [9] and 385 nM in test [10]. The TGI in [1] came out at 879 nM; in [2] it was 229 nM; in test [3], 360 nM; in [4] it was 1280 nM; in test [5] it was 957 nM; in [6] it was 309 nM. Also, the TGI in test [7] came to 597 nM; in [8], 468 nM; in test [9], 820 nM; in test [10], 903 nM.

`Cc1c(Cl)cccc1NC(=O)c1sc2nc3c(cc2c1N)CCCCC3`: the GI50 in test [1] is 596 nM; in test [2] it was 307 nM; in test [3], 5280 nM; in [4], 1760 nM; in test [5], 1220 nM; in test [6], 143 nM. The GI50 was 316 nM in test [7], 1440 nM in test [8], 105 nM in test [9] and 236 nM in test [10]. Moreover, the TGI in test [1] is 13200 nM; in [2] it was 17900 nM; in [3] it was over 50000 nM; in [4] it was over 50000 nM; in test [5] it was over 50000 nM; in test [6], 484 nM. Also, the TGI in [7], in test [8], in test [9] and in test [10] was over 50000 nM each time.

Consider `C[C@@H](Nc1nc(Nc2ccc(F)c(Cl)c2)nc2ccccc12)C1CC1`, for which the GI50 in test [1] was 1710 nM; in [2], 2190 nM; in [3], 1730 nM; in test [4], 2270 nM; in test [5], 2860 nM; in test [6] it was 2450 nM. For the same compound, the GI50 in [7] was 2720 nM; in [8] it was 3250 nM; in test [9], 2840 nM; in test [10], 3180 nM. In addition, the TGI was determined as 3460 nM in test [1]; 8040 nM in test [2]; 12900 nM in [3]; 6460 nM in test [4]; 11800 nM in [5]; 6320 nM in test [6]. The TGI in test [7] was 12400 nM; in test [8], 14400 nM; in test [9], 13300 nM; in test [10], 14100 nM.

Source of the values: PubChem BioAssay (NCI).
